From ChEMBL document CHEMBL4627415, “Design and Structural Optimization of Dual FXR/PPARδ Activators” (J Med Chem, 2020) come the findings set out here.

The source made the active and inactive calls. The calls are words filed in the database; no cut-off is given here.

Data set [1] has as its target T1, Bile acid receptor (Homo sapiens) (UniProt Q96RI1).
T1 sequence (whole entry): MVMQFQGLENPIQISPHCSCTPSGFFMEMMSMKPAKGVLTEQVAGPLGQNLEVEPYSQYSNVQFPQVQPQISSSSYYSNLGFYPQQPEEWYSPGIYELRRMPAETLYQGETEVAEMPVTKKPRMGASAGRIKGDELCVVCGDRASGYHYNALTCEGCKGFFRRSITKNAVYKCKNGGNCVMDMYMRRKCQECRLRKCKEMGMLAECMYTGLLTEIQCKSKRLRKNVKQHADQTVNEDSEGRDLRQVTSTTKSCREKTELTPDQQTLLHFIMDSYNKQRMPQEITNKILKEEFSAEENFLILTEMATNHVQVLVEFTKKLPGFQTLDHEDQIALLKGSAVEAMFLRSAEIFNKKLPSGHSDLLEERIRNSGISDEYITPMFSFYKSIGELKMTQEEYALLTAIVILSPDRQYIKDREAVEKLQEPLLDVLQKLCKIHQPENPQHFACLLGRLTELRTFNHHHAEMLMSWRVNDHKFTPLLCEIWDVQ
The data set is described as follows: Activation of human FXR LBD expressed in HEK293T cells assessed as induction of receptor activation at 1 uM incubated for 12 to 14 hrs by luciferase reporter gene assay relative to GW4064. The class given is cell-based. The conditions noted are these: HEK-293T. In general terms: Reporter assays use an easily measured gene product as a stand-in for the process of interest.

Data set [2] deals with T2, Peroxisome proliferator-activated receptor delta (Homo sapiens) (UniProt Q03181).
T2 sequence (whole entry): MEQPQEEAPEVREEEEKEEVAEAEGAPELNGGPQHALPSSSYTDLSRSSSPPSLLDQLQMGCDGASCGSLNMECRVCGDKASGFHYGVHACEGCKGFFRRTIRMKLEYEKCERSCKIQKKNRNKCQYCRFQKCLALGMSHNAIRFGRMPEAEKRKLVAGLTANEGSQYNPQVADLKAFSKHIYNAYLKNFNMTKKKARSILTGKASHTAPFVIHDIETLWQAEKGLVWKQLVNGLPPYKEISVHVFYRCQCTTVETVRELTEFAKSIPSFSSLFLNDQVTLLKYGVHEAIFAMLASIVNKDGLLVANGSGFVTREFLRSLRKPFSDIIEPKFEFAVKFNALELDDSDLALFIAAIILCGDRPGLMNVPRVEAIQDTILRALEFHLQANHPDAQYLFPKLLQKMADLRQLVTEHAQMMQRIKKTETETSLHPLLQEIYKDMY
The data set is described as follows: Activation of human PPAR-delta LBD expressed in HEK293T cells assessed as induction of receptor activation at 1 uM incubated for 12 to 14 hrs by luciferase reporter gene assay relative to L165,041. The conditions noted are these: HEK-293T. The class given is cell-based.

The target of data set [3] is T3, Peroxisome proliferator-activated receptor delta (Homo sapiens, UniProt Q03181).
T3 sequence (Q03181 whole entry): T2 sequence (whole entry)
The data set is described as follows: Activation of human PPAR-delta LBD expressed in HEK293T cells assessed as induction of receptor activation incubated for 12 to 14 hrs by luciferase reporter gene assay. The class given is cell-based, HEK-293T.

The next data set addresses T4, Bile acid receptor (Homo sapiens, UniProt Q96RI1).
T4 sequence (Q96RI1 whole entry): T1 sequence (whole entry)
The data set is described as follows: Activation of human FXR LBD expressed in HEK293T cells assessed as induction of receptor activation incubated for 12 to 14 hrs by luciferase reporter gene assay. The data set is classed as cell-based, HEK-293T.

Data set [4] deals with T2, Peroxisome proliferator-activated receptor delta (Homo sapiens). The data set is described as follows: Activation of human PPAR-delta LBD expressed in HEK293T cells assessed as induction of receptor activation at 30 uM incubated for 12 to 14 hrs by luciferase reporter gene assay. The data set is classed as cell-based. The conditions noted are these: HEK-293T.
In data set [5] the target is T1, Bile acid receptor (Homo sapiens). The data set is described as follows: Activation of human FXR LBD expressed in HEK293T cells assessed as induction of receptor activation at 20 uM incubated for 12 to 14 hrs by luciferase reporter gene assay. The data set is classed as cell-based. The settings on record: HEK-293T.
In data set [6] the target is T2, Peroxisome proliferator-activated receptor delta (Homo sapiens). The data set is described as follows: Activation of human PPAR-delta LBD expressed in HEK293T cells assessed as induction of receptor activation up to 10 uM incubated for 12 to 14 hrs by luciferase reporter gene assay. The conditions noted are these: HEK-293T. The class given is cell-based.
Data set [7] in a line: Stability in Sprague-Dawley rat liver microsomes assessed as remaining parent compound level at 10 uM presence of NADPH regenerating system by HPLC analysis. The settings on record: read-out: Stability. The data set is classed as ADME, Microsome. For orientation: Microsomes from liver hold many membrane-bound enzymes, among them those of drug oxidation.
The nature of data set [8]: Aqueous solubility in pH 8 buffer by HPLC analysis. The data set is classed as physicochemical.
The next data set has as its system HepG2. The data set is described as follows: Toxicity in human HepG2 cells assessed as reduction in cell viability up to 100 uM incubated for 48 hrs by WST1 assay. The class given is cell-based. The settings on record: hepg2, 48 h. A general note: Formazan colour is commonly taken as a measure of viable cells.
The target of data set [9] is T1, Bile acid receptor (Homo sapiens). The data set is described as follows: Activation of human FXR LBD expressed in HEK293T cells assessed as induction of receptor activation at 1 uM incubated for 12 to 14 hrs by luciferase reporter gene assay. The settings on record: HEK-293T.
For data set [10] the target is unchanged. The data set is described as follows: Activation of human FXR LBD expressed in HEK293T cells assessed as induction of receptor activation at 30 uM incubated for 12 to 14 hrs by luciferase reporter gene assay. The data set is classed as cell-based. The settings on record: HEK-293T.
Data set [11] addresses T2, Peroxisome proliferator-activated receptor delta (Homo sapiens). The data set is described as follows: Activation of human PPAR-delta LBD expressed in HEK293T cells assessed as induction of receptor activation at 1 uM incubated for 12 to 14 hrs by luciferase reporter gene assay. The class given is cell-based. The settings on record: HEK-293T.
The target is the same in data set [12]. The data set is described as follows: Activation of human PPAR-delta LBD expressed in HEK293T cells assessed as induction of receptor activation at 20 uM incubated for 12 to 14 hrs by luciferase reporter gene assay. The class given is cell-based. The conditions noted are these: HEK-293T.

For orientation: EC50 means the midpoint of the concentration-response curve. In the case of `CC(C)c1onc(-c2ccccc2Cl)c1COc1ccc(CCCC(=O)O)cc1`, the results for the %max in [1] and in data set [2] were 16% and 9%, respectively. Also, the EC50 was 0.8 µM in [3] and 3.8 µM at Bile acid receptor.

Turning to `CC(C)c1onc(-c2ccccc2)c1COc1ccc(CCCC(=O)O)cc1`, the figures for the %max in [1] and in data set [2] were 11% and 8.7%, respectively. For the same compound, the EC50 in [3] stood at 0.9 µM; on Bile acid receptor, 31 µM.

On to `Cc1cccc(C)c1-c1noc(C(C)C)c1COc1ccc(CCCC(=O)O)cc1`, for which, in data set [1], the %max was found to be 15%. Besides, the EC50 on Bile acid receptor was 7.7 µM. Further, the result in [4] was inactive.

On to `CC(C)c1onc(-c2ccccc2)c1COc1ccc(COc2ccc(C(=O)O)cc2)cc1`, for which the %max in data set [1] was 5.1%. Further, the EC50 is above 30 µM in data set [3] and 2.3 µM on Bile acid receptor.

With `CC(C)c1onc(-c2ccccc2)c1COc1ccc(Oc2ccc(C(=O)O)cc2)cc1`, the %max in data set [1] is 13%. In addition, the EC50 at Bile acid receptor is 11 µM. The result in [4] was inactive.

Turning to `CC(C)c1onc(-c2c(Cl)cccc2Cl)c1COc1ccc(COc2ccc(CC(=O)O)cc2)c(Cl)c1`, the %max came to 117% in data set [1] and 15% in data set [2]. Further, the EC50 in data set [3] was 1.8 µM; on Bile acid receptor it was 0.8 µM.

For `CC(C)c1onc(-c2c(Cl)cccc2Cl)c1COc1ccc(CNc2ccc(CC(=O)O)cc2)cc1`, the %max in data set [1] turned out to be 29%; in [2], 15%. In addition, the EC50 in data set [3] was found to be 3.6 µM; on Bile acid receptor, 1.6 µM.

On to `CC(C)c1onc(-c2ccccc2Cl)c1COc1ccc(COc2ccc(OCC(=O)O)cc2)cc1`, for which the %max was 17% in data set [1] and 15% in [2]. In addition, the EC50 is 7.2 µM in [3] and 4.7 µM at Bile acid receptor.

Take `CC(C)c1onc(-c2c(Cl)cccc2Cl)c1COc1ccc(CCCC(=O)O)cc1`: the %max in data set [1] stood at 51%; in [2], 15%. For the same compound, the EC50 in data set [3] was determined as 0.7 µM; at Bile acid receptor, 6 µM.

Consider `CC(C)c1onc(-c2c(Cl)cccc2Cl)c1COc1ccc(COc2ccc(CC(=O)O)cc2)cc1`, for which the %max is 37% in data set [1] and 17% in data set [2]. Moreover, the EC50 was found to be 3.1 µM in data set [3] and 2 µM at Bile acid receptor.

Turning to `Cc1cc(NCc2ccc(OCc3c(-c4c(Cl)cccc4Cl)noc3C(C)C)cc2)ccc1CC(=O)O`, the %max was determined as 37% in data set [1] and 15% in [2]. For the same compound, the figures for the EC50 (in [3]; at Bile acid receptor) were 9 µM and 1.2 µM, respectively.

For the compound `CC(C)c1onc(-c2ccccc2)c1COc1ccc(COc2ccc(CCC(=O)O)cc2)cc1`, in data set [2], the %max came out at 32%. In addition, the EC50 in data set [3] stood at 11 µM. For the same compound, the result in [5] was inactive.

On to `CC(C)c1onc(-c2ccccc2Cl)c1COc1ccc(COc2ccc(CC(=O)O)cc2)cc1`, for which the %max in [1] was found to be 9%; in [2] it was 23%. The 50% effective concentration (EC50) stood at 2 µM in data set [3] and 2.5 µM on Bile acid receptor.

The term solubility denotes the concentration that dissolves in the medium under given conditions. Take `CC(C)c1onc(-c2c(Cl)cccc2Cl)c1COc1ccc(/C=C/c2cccc(C(=O)O)c2)c(Cl)c1`: the outcome in data set [6] was inactive. Besides, the remaining at 10 µM in [7] came to 10%. In addition, the solubility in data set [8] is below 0.1 µg/mL. For the same compound, the Activity result with HepG2 is listed as “Non-Toxic”. The result in data set [9] was Active.

In the case of `CC(C)c1onc(-c2ccccc2)c1COc1ccc(COc2cccc(C(=O)O)c2)cc1`, in data set [3], the EC50 was above 30 µM. Besides, the outcome in [10] was inactive.

For `CCCc1c(OCCCOc2ccc(OCC(=O)O)cc2)ccc(C(C)=O)c1O`, the outcome in data set [11] was Active.

Regarding `CC(C)c1onc(-c2ccccc2)c1COc1ccc(CCCCC(=O)O)cc1`, the EC50 (in data set [3]; at Bile acid receptor) was above 30 µM in each case.

Regarding `CC(C)c1onc(-c2ccccc2C(F)(F)F)c1COc1ccc(CCCC(=O)O)cc1`, the %max in [1] worked out at 37%. Also, the EC50 in data set [3] was above 30 µM; at Bile acid receptor it was 4.4 µM.

Consider `Cc1onc(-c2ccccc2)c1COc1ccc(CCCC(=O)O)cc1`, for which the result in data set [4] and in data set [10] was inactive.

Take `CC(C)c1onc(-c2ccccc2)c1COc1ccc(COc2ccc(CC(=O)O)cc2)cc1`: the results for the %max in [1] and in data set [2] were 11% and 54%, respectively. Further, the EC50 was 4.3 µM in data set [3] and 11 µM at Bile acid receptor.

As for `CC(C)c1onc(-c2ccccc2)c1COc1ccc(CCCCCC(=O)O)cc1`, the EC50 in data set [3] is above 10 µM. The outcome in data set [5] was inactive.

Consider `CC(C)c1onc(-c2ccccc2Cl)c1COc1ccc(COc2ccc(C(C)(C)C(=O)O)cc2)cc1`, for which the outcome in data set [12] and in [5] was inactive.
